Assay results from patent US11738099B2, “Molecular probes and methods of use” (CASE WESTERN RESERVE UNIVERSITY, priority 2014, dated 2023).
Where a SMILES comes first, the peptide text is derived from it. The star is where a group is joined. X1 = O=C(O)CN1CCN(CC(=O)O)CCN(CC(O)Cn2cc(CCCC(=O)*)nn2)CCN(CC(=O)O)CC1; PEG2 = NCCOCCOCCC(=O)O

Assays:
4T1 metastatic tumors = assay: MRI of breast cancer metastatic tumor model; assay type: in vivo, mouse
Procedure: In order to construct a metastatic tumor model, 0.2×10^6 4T1 tumor cells undergone 5 days of TGFβ induction were injected through left ventricle of heart, resulting in the spread of tumor cells primarily in brain, lung, liver, lymph node, adrenal gland, chest, and bone marrow. Bioluminescent images of the mice at two weeks were used to monitor the growth of tumors. To assess the targeting capacity of l-ZD2-Cy5, brain and lung were harvested from the mice three hours after 10 nmol l-ZD2-Cy5 were injected. […] Normal brain and lung harvested from normal mice injected with l-ZD2-Cy5 were used as negative controls. Examination of bigger metastatic tumors in lymph nodes and adrenal gland, as shown in FIG. 8B further backed up the targeting efficiency of l-ZD2-Cy5.
Breast cancer metastatic tumor model was imaged at two weeks in order to validate the properties of l-ZD2-Gd(HP-DO3A) in detecting breast cancer micrometastases. In FIG. 9A, a mouse developed with metastatic tumors in lymph nodes, adrenal glands, and chest was imaged in MRI after l-ZD2-Gd(HP-DO3A) injection, in conjugation with BLI validation of tumor positions.

[1] = system: PC3 prostate tumor xenografts; assay: In vivo T1-weighted MRI at 7T, PC3 tumors; set-up: species or system mouse
Procedure: All MRI experiments were performed on a horizontal 7T Bruker scanner (Bruker Biospin Co., Billerica, Mass.). Imaging experiments were performed when the tumor size reached 5-8 mm in diameter. ZD2-Gd(HP-DO3A) was administered intravenously at the dose of 0.1 mmol/kg after acquiring pre-contrast images. Post-contrast images were obtained at 10 min interval up to 30 min. The axial slices of mouse at the tumor location were acquired using T1-weighted spin echo sequence with the following parameters: field of view (FOV): 3 cm; slice thickness: 1.2 mm; interslice distance: 1.2 mm; TR: 500 ms, TE: 8.1 ms; flip angle: 90°; average: 2; matrix size: 128×128. Contrast-to-noise ratio (CNR) at each time point was calculated by subtraction of the average signal intensity in the tumor and muscle, divided by the standard deviation of image noise. ProHance® (gadoteridol) was used as a control in the imaging experiments.

[2] = In vitro complexation stability in PBS with Cu2+, Ca2+, Zn2+; assay type: physicochemical
Procedure: FIGS. 16(A-B) illustrate in vitro complexation stability and transmetallation analysis of ZD2-Gd(HP-DO3A). A) relative Gd content of ZD2-Gd(HP-DO3A) assayed during 200-min incubation of the agent in phosphate buffer saline (PBS) with and without Cu^2+, Ca^2+, or Zn^2+ ions. […] B) In vitro transmetallation analysis of MultiHance, OmniScan, ProHance (abbreviated as Pro.), and ZD2-Gd(HP-DO3A) (abbreviated as ZD2) in mouse senim.

[3] = system: PC-3 human prostate cancer xenograft; assay: MRI of PC-3 xenograft (Example 2); assay type: in vivo, mouse; details: 0.1 mmol-Gd/kg intravenous
Text: The same contrast agent also works for prostate cancer imaging. We then tested the effectiveness of targeting EDB-FN with the contrast agent for prostate cancer MRI in male nude mice bearing primary PC-3 human prostate cancer xenograft.

[4] = mouse, in vivo
Procedure: (§1) PC3 tumor-bearing athymic nude mice (sixteen mice) were randomly divided into 4 groups (four mice each group). […] The animals were sacrificed at 2 and 7 days after injection. The blood and tissue samples, including brain, femur, heart, lung, liver, muscle, spleen, and kidney, were collected and weighed. The tissue samples were then cut into small pieces and mixed with ultra-pure nitric acid (1.0 mL, 70%, EMD, Gibbstown, N.J.). The tissue samples were liquefied within 2 weeks and the solution was transferred to a centrifuge tube and centrifuged at 14,000 rpm for 15 min. The supernatant (0.2 mL) was diluted with 9.8 mL deionized water and further centrifuged at 14,000 rpm for 15 min. The Gd(III) concentration in the final supernatant was measured by ICP-OES. […] The Gd content in different organ/tissues was calculated as the percentage of injected dose per gram of organ/tissues (% Dose/g).

[5] = Gd biodistribution (ICP-OES); details: 1 week after injection
Procedure: as §1

[6] = system: PC3 prostate tumor xenografts; assay: T1-weighted MRI at 1 Tesla, PC3 tumors (Example 3); assay type: in vivo, mouse
Procedure: Male athymic nude mice were purchased from Case Comprehensive Cancer Center (Cleveland, Ohio, USA) and housed in the Animal Core Facility at Case Western Reserve University. All animal experiments were performed in accordance with the animal protocol approved by the CWRU Institutional Animal Care and Use Committee. Athymic nude male mice were subcutaneously injected with 100 μL cell suspension (4×10^7 cells/mL) in matrigel matrix (Corning Bioscience, Corning, N.Y.) to initiate tumors. Mice with tumors of 5-8 mm in diameter were used for imaging studies.
MR images of tumor bearing mice were acquired on an Aspect M3 small animal MRI scanner (1 Tesla). Mice were placed on a holder with the temperature maintained at 37° C., with isoflurane/oxygen mixture supplied to the mice through a nose cone. A thin catheter filled with PBS was connected to a tail vein of the mice. After mice were placed in the coil, a pilot scan was performed to adjust mice to the proper location in the coil. An axial T1 weighted sequence (TR=500 ms; TE=9 ms; Flip angle=90°; Field of view=3 cm×3 cm; Matrix size=128×128×8; slice thickness=2 mm; interslice distance=1 mm) was then used to acquire the images of the tumors before and 10 min, 20 min and 30 min after contrast injection. Images were exported into DICOM data, which were then processed and analyzed using Matlab (Natick, Mass., USA). The contrast to-noise ratio of tumors in the images were calculated as the difference between tumor mean intensity minus muscle mean intensity, divided by the noise.

[7] = Relaxivity measurement at 3T; assay type: physicochemical
Procedure: The design of the EDB-FN targeted MRI agent was based on a modular system that forms small molecular contrast agent in conjugation with l-ZD2. Compound 1 in FIG. 7A was prepared by adding a short PEG linker, followed by reacting with 5-hexynoic acid, resulting in an alkyne group for conjugation through click chemistry. The final product from reaction of compound 1 and 2 was purified with HPLC and characterized with Maldi-Tof spectrum.

[8] = In vitro transmetallation in serum; assay type: in vitro ADME, human; details: blood plasma containing Cu2+, Ca2+, Zn2+; vs MultiHance and OmniScan
Procedure: […] The plasma mixtures were transferred to CF-10 centrifugal filters (molecular weight cut-off 10 KDa) and centrifuged at 4,000 rpm and 25° C. for 150 min. During centrifugation, the solution in the upper reservoir was agitated using a pipette every 20 min for the plasma mixtures. The content of metal ions in both the upper reservoir and the filtrates was determined by ICP-OES after appropriate dilution. The degree of transmetallation of the contrast agents with Zn(II) or Cu(II) ions in the plasma was evaluated using the percentage of Zn(II) or Cu(II) ions filtered through the membrane, calculated as Zn(Cu) %=(concentration of Zn(II) or Cu(II) in the filtrates)/(total Zn(II) or Cu(II) concentration before centrifugal filtration)×100. Human serum was used a control.

CC(C)[C@H](NC(=O)[C@@H](NC(=O)CCOCCOCCNC(=O)CCCc1cn(CC(O)CN2CCN(CC(=O)O)CCN(CC(=O)O)CCN(CC(=O)O)CC2)nn1)[C@@H](C)O)C(=O)N[C@@H](CCCNC(=N)N)C(=O)N[C@H](C(=O)N[C@@H](CO)C(=O)N[C@@H](C)C(=O)N[C@@H](CC(=O)O)C(=O)O)[C@@H](C)O (stereo partly drawn) [ZD2-Gd(HP-DO3A)] ({X1-PEG2}-TVRTSAD-OH)
tumor enhancement in MRI (4T1 metastatic tumors; metastatic tumors at two weeks): All five tumors indicated in BLI showed enhancement in MRI
signal enhancement in tumor by CNR measurement (4T1 metastatic tumors; tumor vs liver, kidney, bladder, muscle): significant higher signal enhancement
signal enhancement in PC3 tumors ([1]; 0.1 mmol/kg i.v., up to 30 min, 7T): Strong signal enhancement
signal enhancement and CNR in PC3 tumors with co-injection of free ZD2 peptide ([1]; 0.1 mmol/kg with 0.5 mmol/kg free ZD2 peptide): significantly reduced
CNR in PC3 tumors ([1]; 10-30 min post-injection): 12-25
increase of CNR in PC3 tumors ([1]; 10 min after injection): over two-fold increase
increase of CNR in PC3 tumors ([1]; 30 min): over five-fold increase
CNR in PC3 tumors ([1]; 30 min (peak), n=5, SEM): 23.7±1.68
contrast enhancement in other organs and normal tissues ([1]; mouse, in vivo): did not produce significant contrast enhancement
relative Gd content ([2]; 200-min incubation in PBS with and without Cu2+, Ca2+, or Zn2+): No decrease in Gd content
transmetallation with endogenous metal ions ([2]; 24 hours of incubation with Cu2+, Ca2+, Zn2+ in PBS (pH=7.4)): no evident transmetallation
tumor contrast enhancement [3]: robust tumor enhancement for at least 30 min
Gd(III) concentration in most of the organs, including the brain, heart, and skin [4]: below the detection limit
tissue retention of Gd [5]: same low tissue retention as ProHance
signal enhancement in PC3 tumors ([6]; 0.1 mmol/kg i.v., up to 30 min, 1 Tesla): Strong signal enhancement
increase of contrast-to-noise ratio (CNR) in PC3 tumors ([6]; 10 min after injection): over two-fold increase
relaxivities (T1 and T2) [7]: relatively high relaxivities
stability against transmetallation [8]: same high stability as ProHance
